Experimental data as given in patent US8791098B2 (priority 2008, dated 2014).
In brackets after ≈: the same amount, converted by molar mass. Where two headings read alike, the source gives them in different places.

Columns and labels:
cancer cell lines = conditions: growth inhibition of cancer cell lines; cited from earlier work
COS-7 = assay: cells; assay type: cell-based, African green monkey; conditions: COS-7, average of two measurements
Protocol: (§1) Cytotoxicity testing of pretubulysin (AU827), N-desmethyl-pretubulysin (AU816) and Tubulysin A and D was performed as follows: Cells were seeded at 6×10^3 cells per well of 96-well plates in 180 μl complete medium and directly treated with varying concentrations of (pre-)tubulysins diluted in methanol. Each compound was tested in duplicate as well as the internal methanol control. After 5 d incubation, 20 μl of 5 mg/ml MTT (Thiazolyl blue tetrazolium bromide) in PBS was added per well and it was further incubated for 2 h at 37° C. The medium was then discarded and cells were washed with 100 μl PBS before adding 100 μl 2-propanol/10 N HCl (250:1) in order to dissolve formazan granules.
(§2) The absorbance at 570 nm was measured using a microplate reader (EL808, Bio-Tek Instruments Inc.), and cell viability was expressed as percentage relative to the respective methanol control. IC50 values were obtained by plotting relative growth inhibition in % against the compound concentration on a logarithmic scale. After sigmoidal curve fitting IC50 values can be determined. The IC50[per ml] are shown in the following table (values represent the average of two measurements): […]

PtK2 cells = assay type: cell-based; conditions: 24 hours incubation
Protocol: Cell staining: Ptk2 cells were seeded on round glass coverslips (13 mm in diameter) in 4-well plates. Cells were incubated with the drugs to the given times as indicated for each experiment. For staining the microtubules and the nuclei, cells were firstly fixed with cold (−20° C.) acetone/methanol (1:1) for 10 min. For labelling the microtubules, cells were incubated with a primary monoclonal antibody against α-tubulin (1:500 Sigam) for 45 min at 37° C., followed by a secondary anti-mouse IgG antibody conjugated with Alexa488 (1:2000; Molecular probes) under the same incubations conditions. The nuclei were stained with DAPI (1 μg/ml in PBS). The cells were washed with phosphate buffer saline (PBS) between incubations. Coverslips were mounted by using Prolong Antifade (Molecular Probes) and imaged through a fluorescence microscope (LSM-Zeiss) with appropriate filter set.
Tubulysin A and D are known to induce de-polymerization of the interphase microtubules of mammalian cells and additionally induce a multi-polar spindle pool in mitotic cells (Khalil, M. et al., Chembiochem. 7, 678-683 (2006); Sasse, F., Menche, D. Nat. Chem. Biol. 3, 87-89 (2007)). Here the effect of pre-tubulysin treatment on the morphologies of microtubules and microtubules related structures in PtK2 cells was tested. PtK2 cells were seeded onto glass cover clips in 4 well plates and cultivated for 24 or 48 hours under growth conditions. The cells were then treated with different concentrations of tubulysin A, tubulysin D, pre-tubulysin-816 or pre-tubulysin-827. The control cells were treated only with equivalent amount of methanol (solvent). The cells were thin incubated for further 24 hours before they were fixed as described under the methods section. Fixed cells were then washed with PBS and finally labeled with anti-α-tubulin primary antibodies followed by anti-mouse-alexa-488 secondary antibodies to visualize the microtubules. The nuclei were stained with DAPI.

L929 [1] = assay: cells; assay type: cell-based, mouse; conditions: L929, average of two measurements
Protocol: as §1, §2

[2] = tested on: U-2 OS human osteosarcoma cells; assay: cells; assay type: cell-based; conditions: average of two measurements
Protocol: as §1
The absorbance at 570 nm was measured using a microplate reader (EL808, Bio-Tek Instruments Inc.), and cell viability was expressed as percentage relative to the respective methanol control. IC50 values were obtained by plotting relative growth inhibition in % against the compound concentration on a logarithmic scale. After sigmoidal curve fitting IC50 values can be determined. The IC50[per ml] are shown in the following table (values represent the average of two measurements):
Similarly cytotoxicity testing of Pretubulysin-related compounds in U-2 OS human osteosarcoma cells was performed and was further compared with AU 339 and AU 954, compounds mentioned in WO2008/106080 and WO2004/046170. The IC50 values are shown in the following table (values represent the average of two measurements): […]

K562 = assay: cells; assay type: cell-based, human; conditions: K562, average of two measurements
Protocol: as §1, §2

A549 = assay: cells; assay type: cell-based, human; conditions: A549, average of two measurements
Protocol: as §1, §2

A431 = assay: cells; assay type: cell-based, human; conditions: A431, average of two measurements
Protocol: as §1, §2

KB3.1 = assay: cells; assay type: cell-based, human; conditions: KB3.1, average of two measurements
Protocol: as §1, §2

SW480 = assay: cells; assay type: cell-based, human; conditions: SW480, average of two measurements
Protocol: as §1, §2

U937 [3] = assay: cells; assay type: cell-based, human; conditions: U937, average of two measurements
Protocol: as §1, §2

HL-60 = assay: cells; assay type: cell-based, human; conditions: HL-60, average of two measurements
Protocol: as §1, §2

HEK293T = assay: cells; assay type: cell-based, human; conditions: average of two measurements
Protocol: as §1, §2

SH-SY5Y = assay: cells; assay type: cell-based, human; conditions: average of two measurements
Protocol: as §1, §2

HepG2 = assay: cells; assay type: cell-based, human; conditions: HepG2, average of two measurements
Protocol: as §1, §2

HL-60 cells = assay: cells; conditions: for anti-proliferation effects: HL-60, concentrations up to 100 ng/ml
Protocol: A given number of cells were cultivated in 96-well plates with serial dilutions of the drugs up to 100 ng/ml. Tubulysin A is used as a positive control, whereas methanol is used as a negative control. After 5 days of incubation the metabolic activities of the cells were measured using MTT-assay as described under the methods section.
The effect of pre-tubulysin 816 and 827 was tested with regard to the growth of other cell lines, including the mouse connective tissues fibroblast L929, the human lung carcinoma cell line A549, the human colon adenocarcinoma cell line SW-480, and the human histiocytic lymphoma cell line U937, in addition to the human myeloid leukemia cell line HL-60.

L929 [4] = assay: Anti-proliferation MTT assay (Example 2, Table 1); assay type: cell-based; conditions: L929 mouse connective tissue fibroblast
U937 [5] = assay: Anti-proliferation MTT assay (Example 2, Table 1); assay type: cell-based; conditions: U937 human histiocytic lymphoma
[6] = Homo sapiens, U2OS, comparison with prior art compounds, read-out: IC50

Compound: CC[C@H](C)[C@H](NC(=O)[C@H]1CCCCN1C)C(=O)N(COC(=O)CC(C)C)[C@H](C[C@@H](OC(C)=O)c1nc(C(=O)N[C@@H](Cc2ccccc2)C[C@H](C)C(=O)O)cs1)C(C)C [Tubulysin D, reference compound]
- potency relative to tubulysin A (cancer cell lines): approximately 10 folds
- IC50 (COS-7; Chlorocebus sabaeus, read-out: IC50): 0.0337 ng/mL (≈ 0.0407 nM)
- concentration for complete de-polymerization (disappearance) of interphase microtubules (PtK2 cells): 50 pg/mL
- IC50 (L929 [1]; Mus musculus, read-out: IC50): 0.017 ng/mL (≈ 0.0205 nM)
- IC50 ([2]; Homo sapiens, U2OS, read-out: IC50): 0.0342 ng/mL (≈ 0.0413 nM)
- IC50 [2, 6]: 0.034 ng/mL (≈ 0.0411 nM)
- IC50 (K562; Homo sapiens, read-out: IC50): 0.0222 ng/mL (≈ 0.0268 nM)
- IC50 (A549; Homo sapiens, read-out: IC50): 0.0056 ng/mL (≈ 0.00676 nM)
- IC50 (A431; Homo sapiens, A-431, read-out: IC50): 0.0119 ng/mL (≈ 0.0144 nM)
- IC50 (KB3.1; Homo sapiens, KB 3-1, read-out: IC50): 0.0182 ng/mL (≈ 0.022 nM)
- IC50 (SW480; Homo sapiens, read-out: IC50): 0.0037 ng/mL (≈ 0.00447 nM)
- IC50 (U937 [3]; Homo sapiens, U-937, read-out: IC50): 0.0025 ng/mL (≈ 0.00302 nM)
- IC50 (HL-60; Homo sapiens, read-out: IC50): 0.0028 ng/mL (≈ 0.00338 nM)
- IC50 (HEK293T; Homo sapiens, HEK-293T, read-out: IC50): 0.0104 ng/mL (≈ 0.0126 nM)
- IC50 (SH-SY5Y; Homo sapiens, read-out: IC50): 0.0113 ng/mL (≈ 0.0136 nM)
- IC50 (HepG2; Homo sapiens, read-out: IC50): 0.0066 ng/mL (≈ 0.00797 nM)

Compound: CCOC(=O)/C(C)=C/[C@H](Cc1ccccc1)NC(=O)c1csc(CC[C@H](C(C)C)N(C)C(=O)[C@@H](NC(=O)[C@H]2CCCCN2C)[C@@H](C)CC)n1 [AU939]
- IC50 [2, 6]: 339 ng/mL (≈ 487 nM)

Compound: CC[C@H](C)[C@H](NC(=O)[C@H]1CCCCN1C)C(=O)N(C)[C@H](CCc1nc(C(=O)O)cs1)C(C)C [pre-tubulysin-814]
- anti-proliferation effects (HL-60 cells; 5 days, MTT): no anti-proliferation effects
- cytotoxic activity (HL-60 cells; at concentration up to 11 μg/ml, listed as Pre-tub-814): did not show any cytotoxic activity

Compound: CC[C@H](C)[C@H](NC(=O)[C@H]1CCCCN1C)C(=O)N(COC(=O)CC(C)C)[C@H](C[C@@H](OC(C)=O)c1nc(C(=O)N[C@@H](Cc2ccc(O)cc2)C[C@H](C)C(=O)O)cs1)C(C)C [Tubulysin A, reference compound]
- IC50 (HL-60 cells; HL-60, serial dilutions up to 100 ng/ml, 5 days, MTT): 0.0019 ng/mL (≈ 0.00225 nM)
- IC50 value (HL-60 cells; HL-60 human acute myeloid leukemia (Table 1)): 0.002 ng/mL (≈ 0.00237 nM)
- IC50 (COS-7): 0.0806 ng/mL (≈ 0.0955 nM)
- concentration for complete de-polymerization (disappearance) of interphase microtubules (PtK2 cells): 500 pg/mL
- IC50 value (L929 [4]): 0.15 ng/mL (≈ 0.178 nM)
- IC50 (L929 [1]): 0.21 ng/mL (≈ 0.249 nM)
- IC50 [2]: 0.19 ng/mL (≈ 0.225 nM)
- IC50 ([2]; comparison with prior art compounds): 0.19 ng/mL (≈ 0.225 nM)
- IC50 value (U937 [5]): 0.002 ng/mL (≈ 0.00237 nM)
- IC50 (K562): 0.40 ng/mL (≈ 0.474 nM)
- IC50 (A549): 0.0856 ng/mL (≈ 0.101 nM)
- IC50 (A431): 0.1002 ng/mL (≈ 0.119 nM)
- IC50 (KB3.1): 0.16 ng/mL (≈ 0.19 nM)
- IC50 (SW480): 0.0187 ng/mL (≈ 0.0222 nM)
- IC50 (U937 [3]): 0.0461 ng/mL (≈ 0.0546 nM)
- IC50 (HL-60): 0.0479 ng/mL (≈ 0.0567 nM)
- IC50 (HEK293T): 0.0523 ng/mL (≈ 0.062 nM)
- IC50 (SH-SY5Y): 0.21 ng/mL (≈ 0.249 nM)
- IC50 (HepG2): 0.12 ng/mL (≈ 0.142 nM)

Compound: CC[C@H](C)[C@H](NC(=O)[C@H]1CCCCN1C)C(=O)N(C)[C@H](CCc1nc(C(=O)N[C@@H](Cc2ccccc2)C(=O)O)cs1)C(C)C [pre-tubulysin-815]
- anti-proliferation effects (HL-60 cells; 5 days, MTT): no anti-proliferation effects
- IC50 (HL-60 cells; Homo sapiens, HL-60): 700 ng/mL (≈ 1110 nM)

Compound: CC[C@H](C)[C@H](NC(=O)CN(C)C)C(=O)N(C)[C@H](CCc1nc(C(=O)N[C@H](CCC(=O)O)Cc2ccccc2)cs1)C(C)C [pre-tubulysin-825]
- anti-proliferation effects (HL-60 cells; 5 days, MTT): no anti-proliferation effects
- IC50 (HL-60 cells; Homo sapiens, HL-60): 600 ng/mL (≈ 974 nM)

Compound: CC[C@H](C)[C@H](NC(=O)[C@H]1CCCCN1C)C(=O)N(C)[C@H](CCc1nc(C(=O)N[C@H](/C=C(\C)C(=O)O)Cc2ccccc2)cs1)C(C)C [AU954]
- IC50 [2, 6]: 82 ng/mL (≈ 123 nM)
